Measured values taken from ChEMBL document CHEMBL3870361, “Discovery of Novel Seven-Membered Prostacyclin Analogues as Potent and Selective Prostaglandin FP and EP3 Dual Agonists” (ACS Med Chem Lett, 2017).

Key:
[1] = target: T1, Prostaglandin E2 receptor EP3 subtype (Homo sapiens, UniProt P43115); assay: Agonist activity at human EP3 receptor expressed in CHO cells assessed as increase in intracellular calcium level by Fura 2-AM dye based fluorescence assay; type: functional, cell-based
T1 sequence (P43115 whole entry): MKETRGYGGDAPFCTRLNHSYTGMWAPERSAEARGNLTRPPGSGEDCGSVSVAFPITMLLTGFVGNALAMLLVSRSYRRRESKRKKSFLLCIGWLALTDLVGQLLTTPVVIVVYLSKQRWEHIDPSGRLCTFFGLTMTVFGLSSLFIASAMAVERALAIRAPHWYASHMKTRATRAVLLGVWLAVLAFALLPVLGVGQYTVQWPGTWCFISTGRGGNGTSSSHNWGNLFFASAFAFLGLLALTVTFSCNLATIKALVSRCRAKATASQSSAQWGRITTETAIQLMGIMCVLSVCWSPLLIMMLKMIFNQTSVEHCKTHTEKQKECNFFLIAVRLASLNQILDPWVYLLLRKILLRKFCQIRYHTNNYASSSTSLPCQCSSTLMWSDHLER

[2] = target: Prostaglandin F2-alpha receptor (Homo sapiens, UniProt P43088); assay: Agonist activity at human prostaglandin FP receptor expressed in CHO cells assessed as increase in intracellular calcium level by Fura 2-AM dye based fluorescence assay; type: functional, cell-based
Prostacyclin receptor = Prostacyclin receptor (Homo sapiens, UniProt P43119); assay: Agonist activity at human IP receptor expressed in CHO cells assessed as increase in intracellular cAMP level by HTRF method; type: cell-based
[3] = target: Prostaglandin E2 receptor EP2 subtype (Homo sapiens, UniProt P43116); assay: Agonist activity at EP2 receptor (unknown origin)
[4] = target: Prostaglandin E2 receptor EP4 subtype (Homo sapiens, UniProt P35408); assay: Agonist activity at EP4 receptor (unknown origin)
Prostaglandin E2 receptor EP4 subtype, sequence (P35408 whole entry): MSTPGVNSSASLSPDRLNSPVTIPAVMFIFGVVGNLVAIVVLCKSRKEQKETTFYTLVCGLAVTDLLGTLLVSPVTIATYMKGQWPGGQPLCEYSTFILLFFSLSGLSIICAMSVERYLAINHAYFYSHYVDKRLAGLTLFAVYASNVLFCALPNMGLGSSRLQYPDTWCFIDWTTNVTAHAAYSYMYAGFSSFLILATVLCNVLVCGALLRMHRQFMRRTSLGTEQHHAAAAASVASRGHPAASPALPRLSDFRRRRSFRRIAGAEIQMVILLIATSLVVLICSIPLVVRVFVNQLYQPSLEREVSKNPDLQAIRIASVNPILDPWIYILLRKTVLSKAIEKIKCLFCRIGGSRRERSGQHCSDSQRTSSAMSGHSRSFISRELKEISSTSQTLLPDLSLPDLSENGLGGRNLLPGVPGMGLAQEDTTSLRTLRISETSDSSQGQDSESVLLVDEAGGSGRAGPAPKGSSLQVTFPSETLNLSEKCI

Prostacyclin receptor, sequence (P43119 whole entry): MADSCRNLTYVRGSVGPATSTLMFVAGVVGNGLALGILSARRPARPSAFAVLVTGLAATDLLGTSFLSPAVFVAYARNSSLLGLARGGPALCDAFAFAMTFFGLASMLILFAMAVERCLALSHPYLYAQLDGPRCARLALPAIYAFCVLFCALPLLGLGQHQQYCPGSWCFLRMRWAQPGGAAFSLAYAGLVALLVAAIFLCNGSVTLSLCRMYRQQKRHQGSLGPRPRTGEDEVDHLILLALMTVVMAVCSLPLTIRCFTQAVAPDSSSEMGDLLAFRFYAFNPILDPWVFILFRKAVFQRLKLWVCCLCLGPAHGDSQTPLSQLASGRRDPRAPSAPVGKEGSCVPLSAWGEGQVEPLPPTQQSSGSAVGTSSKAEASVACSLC
Prostaglandin F2-alpha receptor, sequence (P43088 whole entry): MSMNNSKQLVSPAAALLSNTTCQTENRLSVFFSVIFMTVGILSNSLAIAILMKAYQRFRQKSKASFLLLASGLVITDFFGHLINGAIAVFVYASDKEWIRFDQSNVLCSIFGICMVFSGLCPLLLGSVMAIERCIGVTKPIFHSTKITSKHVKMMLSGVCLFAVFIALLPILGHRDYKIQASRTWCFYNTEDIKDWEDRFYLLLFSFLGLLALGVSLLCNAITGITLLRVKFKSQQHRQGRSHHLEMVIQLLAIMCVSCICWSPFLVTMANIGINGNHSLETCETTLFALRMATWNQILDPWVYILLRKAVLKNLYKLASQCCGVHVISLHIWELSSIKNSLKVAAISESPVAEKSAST
Prostaglandin E2 receptor EP2 subtype, sequence (P43116 whole entry): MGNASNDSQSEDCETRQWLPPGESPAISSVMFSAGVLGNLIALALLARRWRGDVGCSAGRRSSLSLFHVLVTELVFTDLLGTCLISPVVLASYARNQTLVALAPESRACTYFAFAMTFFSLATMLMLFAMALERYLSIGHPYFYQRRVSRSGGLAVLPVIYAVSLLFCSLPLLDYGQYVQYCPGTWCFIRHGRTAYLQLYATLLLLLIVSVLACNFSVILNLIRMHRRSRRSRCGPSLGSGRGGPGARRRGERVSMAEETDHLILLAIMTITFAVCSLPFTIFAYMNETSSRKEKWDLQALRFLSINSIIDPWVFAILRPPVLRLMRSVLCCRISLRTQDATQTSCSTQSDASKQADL

Compound | EC50 [1] | EC50 [2] | EC50 (Prostacyclin receptor) | EC50 [3] | EC50 [4]
O=C(O)CCC[C@H]1CC[C@@H]2[C@@H](/C=C/[C@@H](O)COc3ccccc3)[C@H](O)C[C@@H]2O1 | 3.6 nM | 7.1 nM | – | – | –
O=C(O)CCCCC1=CC[C@@H]2[C@@H](/C=C/[C@@H](O)COc3ccccc3)[C@H](O)C[C@@H]2OC1 | 13 nM | 73 nM | > 10000 nM | – | –
O=C(O)CCC1=CC[C@@H]2[C@@H](/C=C/[C@@H](O)COc3ccccc3)[C@H](O)C[C@@H]2OC1 | 2700 nM | 530 nM | > 10000 nM | – | –
O=C(O)CC[C@H]1CCC[C@@H]2[C@@H](/C=C/[C@@H](O)COc3ccccc3)[C@H](O)C[C@@H]2O1 | 18 nM | 22 nM | > 10000 nM | – | –
O=C(O)CCCC1=CC[C@@H]2[C@@H](/C=C/[C@@H](O)COc3ccccc3)[C@H](O)C[C@@H]2OC1 | 4700 nM | 640 nM | > 10000 nM | – | –
O=C(O)CCCC[C@H]1CC[C@@H]2[C@@H](/C=C/[C@@H](O)COc3ccccc3)[C@H](O)C[C@@H]2OC1 | 540 nM | 43 nM | > 10000 nM | – | –
O=C(O)CC[C@H]1CC[C@@H]2[C@@H](/C=C/[C@@H](O)COc3ccccc3)[C@H](O)C[C@@H]2OC1 | 4800 nM | 110 nM | > 10000 nM | – | –
O=C(O)CCC[C@@H]1CC[C@@H]2[C@@H](/C=C/[C@@H](O)COc3ccccc3)[C@H](O)C[C@@H]2OC1 | 2.3 nM | 280 nM | > 10000 nM | – | –
O=C(O)CCCCCC1=CC[C@@H]2[C@@H](/C=C/[C@@H](O)COc3ccccc3)[C@H](O)C[C@@H]2OC1 | 6400 nM | 880 nM | > 10000 nM | – | –
O=C(O)CC[C@@H]1CCC[C@@H]2[C@@H](/C=C/[C@@H](O)COc3ccccc3)[C@H](O)C[C@@H]2O1 | 27 nM | 3.8 nM | 2000 nM | – | –
O=C(O)CCC[C@H]1CC[C@@H]2[C@@H](/C=C/[C@@H](O)COc3ccccc3)[C@H](O)C[C@@H]2OC1 | 4 nM | 28 nM | > 10000 nM | > 10000 nM | > 10000 nM
O=C(O)CCC/C=C\C[C@H]1C(=O)C[C@@H](O)[C@@H]1/C=C/[C@@H](O)COc1ccccc1 | 0.89 nM | 16 nM | – | – | –
O=C(O)CCCC[C@@H]1CC[C@@H]2[C@@H](/C=C/[C@@H](O)COc3ccccc3)[C@H](O)C[C@@H]2OC1 | 130 nM | 110 nM | > 10000 nM | – | –
O=C(O)CCC[C@@H]1CC[C@@H]2[C@@H](/C=C/[C@@H](O)COc3ccccc3)[C@H](O)C[C@@H]2O1 | 4.1 nM | 4.1 nM | 26 nM | – | –
O=C(O)CC[C@@H]1CC[C@@H]2[C@@H](/C=C/[C@@H](O)COc3ccccc3)[C@H](O)C[C@@H]2OC1 | 870 nM | 1000 nM | > 10000 nM | – | –
O=C(O)CCC/C=C\C[C@@H]1[C@@H](/C=C/[C@@H](O)COc2cccc(C(F)(F)F)c2)[C@H](O)C[C@@H]1O [FLUPROSTENOL] | 3400 nM | 3.6 nM | > 10000 nM | – | –
